Counter-ions that a name gives are not always drawn.
Target: T1, EHMT2 (Homo sapiens, UniProt Q96KQ7)
T1 construct: host or cells: MDA-MB-231
T1 sequence (Q96KQ7 1-1210): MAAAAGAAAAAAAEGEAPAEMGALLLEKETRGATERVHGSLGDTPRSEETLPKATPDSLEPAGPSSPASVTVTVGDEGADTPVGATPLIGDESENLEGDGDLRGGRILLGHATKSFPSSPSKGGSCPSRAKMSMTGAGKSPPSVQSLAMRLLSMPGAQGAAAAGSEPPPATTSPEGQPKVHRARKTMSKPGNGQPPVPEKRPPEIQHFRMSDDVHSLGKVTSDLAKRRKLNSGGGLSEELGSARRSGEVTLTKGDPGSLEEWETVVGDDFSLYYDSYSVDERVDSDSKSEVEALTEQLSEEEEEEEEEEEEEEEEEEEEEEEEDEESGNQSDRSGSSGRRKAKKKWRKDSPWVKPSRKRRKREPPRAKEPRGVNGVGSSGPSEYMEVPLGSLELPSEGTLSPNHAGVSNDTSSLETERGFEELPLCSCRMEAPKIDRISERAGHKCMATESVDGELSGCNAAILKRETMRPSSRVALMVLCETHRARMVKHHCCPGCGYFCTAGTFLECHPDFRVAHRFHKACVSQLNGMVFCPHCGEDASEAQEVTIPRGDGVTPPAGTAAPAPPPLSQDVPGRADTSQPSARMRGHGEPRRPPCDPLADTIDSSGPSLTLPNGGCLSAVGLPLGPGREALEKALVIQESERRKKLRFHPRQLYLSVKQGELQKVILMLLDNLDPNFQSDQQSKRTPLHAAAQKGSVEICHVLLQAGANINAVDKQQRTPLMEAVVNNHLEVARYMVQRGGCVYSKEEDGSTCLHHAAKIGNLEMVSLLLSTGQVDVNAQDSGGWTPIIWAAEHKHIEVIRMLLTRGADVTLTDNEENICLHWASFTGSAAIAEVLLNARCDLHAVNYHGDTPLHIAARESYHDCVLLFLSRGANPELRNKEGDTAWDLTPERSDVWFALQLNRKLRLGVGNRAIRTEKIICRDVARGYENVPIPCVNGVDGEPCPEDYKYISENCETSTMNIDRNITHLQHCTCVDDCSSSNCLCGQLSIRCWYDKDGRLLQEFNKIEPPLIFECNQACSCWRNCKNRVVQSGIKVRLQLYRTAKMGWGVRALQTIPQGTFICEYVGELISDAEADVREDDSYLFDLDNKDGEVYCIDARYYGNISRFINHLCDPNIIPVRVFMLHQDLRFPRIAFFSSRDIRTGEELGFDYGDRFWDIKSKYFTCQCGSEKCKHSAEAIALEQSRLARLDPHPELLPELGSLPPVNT
Test: MDA-MB-231 H3K9me2 in-cell Western assay (EHMT2 ICW)
Assay type: cell-based
Details: Table II; MDA-MB-231 H3K9me2 in-cell Western; read-out: EHMT2 ICW (IC50 μM)
Source text: RPMI/Glutamax medium, Penicillin-Streptomycin, Heat Inactivated Fetal Bovine Serum, and D-PBS were purchased from Life Technologies (Grand Island, N.Y., USA). Odyssey blocking buffer, 800CW goat anti-mouse IgG (H+L) antibody, and Licor Odyssey Infrared Scanner were purchased from Licor Biosciences, Lincoln, Nebr., USA. […] 16% Paraformaldehyde was purchased from Electron Microscopy Sciences, Hatfield, Pa., USA).MDA-MB-231 cells were maintained in complete growth medium (RPMI supplemented with 10% v/v heat inactivated fetal bovine serum) and cultured at 37° C. under 5% CO2. UNC0638 was purchased from Sigma-Aldrich (St. Louis, Mo., USA).
Compound (100 nL) was added directly to 384-well cell plate. MDA-MB-231 cells (ATCC) were seeded in assay medium (RPMI/Glutamax supplemented with 10% v/v heat inactivated fetal bovine serum and 1% Penicillin/Streptomycin, Life Technologies) at a concentration of 3,000 cells per well to a Poly-D-Lysine coated 384-well cell culture plate with 50 μL per well. […] Plates were incubated at room temperature for 30 minutes and then incubated at 37° C., 5% CO2 for additional 48 hours. After the incubation, 50 μL per well of 8% paraformaldehyde (Electron Microscopy Sciences) in PBS was added to the plates and incubated at room temperature for 20 minutes. […] Next, 60 μL per well of Odyssey blocking buffer (Licor Biosciences) was added to each plate and incubated for 1 hour at room temperature. Blocking buffer was removed and 20 μL of monoclonal primary antibody α-H3K9me2 (Abcam) diluted 1:800 in Odyssey buffer with 0.1% Tween 20 (v/v) were added and plates were incubated overnight (16 hours) at 4° C. Plates were washed 5 times with 100 μL per well of wash buffer. Next 20 μL per well of secondary antibody was added (1:500 800CW donkey anti-mouse IgG (H+L) antibody (Licor Biosciences), 1:1000 DRAQ5 (Cell Signaling Technology) in Odyssey buffer with 0.1% Tween 20 (v/v)) and incubated for 1 hour at room temperature. The plates were washed 5 times with 100 μL per well wash buffer then 2 times with 100 μL per well of water. Plates were allowed to dry at room temperature then imaged on a Licor Odyssey Infrared Scanner (Licor Biosciences) which measured integrated intensity at 700 nm and 800 nm wavelengths. Both 700 and 800 channels were scanned.
First, the ratio for each well was determined by:
The average of the ratio values for each well was calculated and used to determine the percent inhibition for each test well in the plate. Control compound was serially diluted three-fold in DMSO for a total of 10 test concentrations beginning at 1 μM. Percent inhibition was calculated as: […]
IC50 curves were generated using triplicate wells per concentration of compound. […] IC50 values were calculated using a non-linear regression (variable slope-four parameter fit model) with by the following formula: […]

Row | IC50 [µM] | Compound
1 | > 10 | COc1ccc(Nc2cc(NCC3CCNCC3)ccn2)cc1OCCCN1CCCC1 [Compound 10, N^2-(4-methoxy-3-(3-(pyrrolidin-1-yl)propoxy)phenyl)-N^4-(piperidin-4-ylmethyl)pyridine-2,4-diamine]
2 | > 10 | COc1ccc(Nc2ccnc(N(C)CC3CCN(C(C)=O)CC3)c2)cc1OCCCN1CCCC1 [Compound 13, 1-(4-(((4-((4-methoxy-3-(3-(pyrrolidin-1-yl)propoxy)phenyl)amino)pyridin-2-yl)(methyl)amino)methyl)piperidin-1-yl)ethan-1-one]
3 | > 10 | COc1ccc(Nc2nccc(OCC3CCN(C(C)=O)CC3)n2)cc1OCCCN1CCCC1 [Compound 14, 1-(4-(((2-((4-methoxy-3-(3-(pyrrolidin-1-yl)propoxy)phenyl)amino)pyrimidin-4-yl)oxy)methyl)piperidin-1-yl)ethan-1-one]
4 | > 10 | COc1ccc(Nc2nc(NCC3CCNCC3)cc(N3CCCC3)n2)cc1OCCCN1CCCC1 [Compound 103]
5 | > 10 | COc1ccc(Nc2nccc(N3CCc4[nH]ncc4C3)n2)cc1OCCCN1CCCC1 [Compound 128]
6 | > 10 | COc1ccc(Nc2nccc(-c3c[nH]nc3C)n2)cc1OCCCN1CCCC1 [Compound 131]
7 | > 10 | COc1ccc(Nc2nccc(N3CCCNC(=O)C3)n2)cc1OCCCN1CCCC1 [Compound 133]
8 | > 10 | COc1ccc(Nc2nccc(N(C)Cc3cccnc3)n2)cc1OCCCN1CCCC1 [Compound 135]
9 | > 10 | COc1ccc(Nc2nccc(N(C)Cc3ccccn3)n2)cc1OCCCN1CCCC1 [Compound 136]
10 | > 10 | COc1ccc(Nc2nccc(N3CCN(C(C)=O)CC3)n2)cc1OCCCN1CCCC1 [Compound 139]
11 | > 10 | COc1ccc(Nc2nccc(N(C)CCCO)n2)cc1OCCCN1CCCC1 [Compound 140]
12 | > 10 | COc1ccc(Nc2nccc(N3CCC(C)(O)CC3)n2)cc1OCCCN1CCCC1 [Compound 141]
13 | > 10 | COCCCN(C)c1ccnc(Nc2ccc(OC)c(OCCCN3CCCC3)c2)n1 [Compound 143]
14 | > 10 | COc1ccc(Nc2nccc(CNC(C)=O)n2)cc1OCCCN1CCCC1 [Compound 144]
15 | > 10 | COc1ccc(Nc2nccc(N3CCC(OC)CC3)n2)cc1OCCCN1CCCC1 [Compound 149]
16 | > 10 | COc1ccc(Nc2nccc(NC3CCS(=O)(=O)CC3)n2)cc1OCCCN1CCCC1 [Compound 152]
17 | > 10 | COc1ccc(Nc2nccc(N3CCc4cn[nH]c4C3)n2)cc1OCCCN1CCCC1 [Compound 155]
18 | > 10 | COc1ccc(Nc2ccnc(OCC3CCN(C(C)=O)CC3)c2)cc1OCCCN1CCCC1 [Compound 157]

Second part, the compound before the results:

Row | Compound | IC50 [µM]
19 | COc1ccc(Nc2nccc(NC(C)(C)C)n2)cc1OCCCN1CCCC1 [Compound 6, N^4-(tert-butyl)-N^2-(4-methoxy-3-(3-(pyrrolidin-1-yl)propoxy)phenyl)pyrimidine-2,4-diamine] | 1 to 10
20 | COc1ccc(Nc2ccnc(NCC3CCNCC3)n2)cc1OCCCN1CCCC1 [Compound 7, 4-N-[4-methoxy-3-[3-(pyrrolidin-1-yl)propoxy]phenyl]-2-N-(piperidin-4-ylmethyl)pyrimidine-2,4-diamine hydrochloride] | 1 to 10
21 | CC(=O)N1CCC(CNc2ccnc(Nc3ccc(Cl)c(OCCCN4CCCC4)c3)n2)CC1 [Compound 8, 1-(4-(((2-((4-chloro-3-(3-(pyrrolidin-1-yl)propoxy)phenyl)amino)pyrimidin-4-yl)amino)methyl)piperidin-1-yl)ethan-1-one] | 1 to 10
22 | CNC(=O)c1cnc(Nc2ccc(OC)c(OCCCN3CCCC3)c2)nc1 [Compound 9, 2-((4-methoxy-3-(3-(pyrrolidin-1-yl)propoxy)phenyl)amino)-N-methylpyrimidine-5-carboxamide] | > 10
23 | COc1cnc(Nc2ccnc(CNC3CCOCC3)c2)cc1OCCCN1CCCC1 [Compound 12, 5-methoxy-4-(3-(pyrrolidin-1-yl)propoxy)-N-(2-(((tetrahydro-2H-pyran-4-yl)amino)methyl)pyridin-4-yl)pyridin-2-amine] | > 10
24 | COc1ccc(Nc2nccc(NCC3CCNCC3)n2)cc1OCC(O)CN1CCCC1 (stereo not drawn) [Compound 15, 1-(2-methoxy-5-((4-((piperidin-4-ylmethyl)amino)pyrimidin-2-yl)amino)phenoxy)-3-(pyrrolidin-1-yl)propan-2-ol] | > 10
25 | COc1ccc(Nc2cc(CNC3CCNCC3)n(C)n2)cc1OCCCN1CCCC1 [Compound 126] | > 10
26 | COc1ccc(Nc2cc(CNC3CCOCC3)n(C)n2)cc1OCCCN1CCCC1 [Compound 127] | > 10
27 | COc1ccc(Nc2nccc(-c3c(C)n[nH]c3C)n2)cc1OCCCN1CCCC1 [Compound 129] | > 10
28 | COc1ccc(Nc2nccc(-c3c(C)noc3C)n2)cc1OCCCN1CCCC1 [Compound 130] | > 10
29 | COc1ccc(Nc2nccc(N3CCN(C)C(=O)C3)n2)cc1OCCCN1CCCC1 [Compound 132] | > 10
30 | COc1ccc(Nc2nccc(N3CCc4nc[nH]c(=O)c4C3)n2)cc1OCCCN1CCCC1 [Compound 134] | > 10
31 | COc1ccc(Nc2nccc(NC3COC3)n2)cc1OCCCN1CCCC1 [Compound 137] | > 10
32 | COc1ccc(Nc2nccc(N3CCCN(C(C)=O)CC3)n2)cc1OCCCN1CCCC1 [Compound 138] | > 10
33 | COc1ccc(Nc2nccc(N(C)C3CCOCC3)n2)cc1OCCCN1CCCC1 [Compound 142] | > 10
34 | CC(=O)N1CCC(CNc2ccnc(Nc3ccc(C)c(OCCCN4CCCC4)c3)n2)CC1 [Compound 145] | > 10
35 | COc1ccc(Nc2nccc(N(C)CC3CCOCC3)n2)cc1OCCCN1CCCC1 [Compound 146] | 1 to 10
36 | COc1ccc(Nc2nccc(N3CCC(C(C)(C)O)CC3)n2)cc1OCCCN1CCCC1 [Compound 147] | > 10
37 | COc1ccc(Nc2nccc(N3CCC(O)CC3)n2)cc1OCCCN1CCCC1 [Compound 148] | > 10
38 | COc1ccc(Nc2nccc(N(C)CCO)n2)cc1OCCCN1CCCC1 [Compound 150] | > 10
39 | COc1ccc(Nc2nccc(N3CCCOCC3)n2)cc1OCCCN1CCCC1 [Compound 151] | > 10
40 | COc1ccc(Nc2nccc(N3CCC(C(N)=O)CC3)n2)cc1OCCCN1CCCC1 [Compound 153] | > 10
41 | COc1ccc(Nc2nccc(N3CCNc4ccccc4C3)n2)cc1OCCCN1CCCC1 [Compound 154] | > 10
42 | COc1ccc(Nc2nccc(N3CCc4ncncc4C3)n2)cc1OCCCN1CCCC1 [Compound 156] | > 10

— patent US20210198277A1, “AMINE-SUBSTITUTED ARYL OR HETEROARYL COMPOUNDS” (Epizyme, Inc., priority 2016, published 2021)
